# Laboratory results taken from patent US20250041307A1, “Uses of Bicyclic Compounds for the Treatment of Diseases” (Athira Pharma, Inc., priority 2021, published 2025).
# How the values were obtained:
# [1] = tested on: HGF/MET system; assay: Phospho-MET ELISA; assay type: cell-based; set-up: key: − indicates that the compound failed to significantly augment MET phosphorylation; + indicates maximum potency at or above 100 nM; ++ indicates maximum potency at or above 10 nM; +++ indicates maximum potency at or above 1 nM; ++++ indicates maximum potency at or above 0.1 nM; settings: HEK293 cells; with 1 ng/mL recombinant HGF; 15 minutes; augmentation of MET phosphorylation (pMET ELISA)
# Experimental: Compounds were screened for potency towards the HGF/MET system using phospho-MET (pMET) ELISA kits (Cell Signaling). pMET levels were detected in samples having low (1 ng/mL) and high (10 ng/mL) concentrations of HGF.
# HEK293 cells were prepared by passage into 6-well multi-plates and grown at 37° C. at 5% CO2 in DMEM+10% FBS until approximately 90% confluent. Cells were then starved for at least 8 hours in serum-free growth media.
# Exemplary compounds were prepared in DMEM+0.1% FBS, diluted and added to treatment media with 1 ng/mL recombinant HGF protein (R&D Systems). Cells were incubated in triplicate at 37° C. and 5% CO2 for 15 minutes. Samples were then treated with 180 μL ice-cold RIPA (radioimmunoprecipitation assay) buffer and cells were lysed on ice for 15 minutes. Lysates were cleared by centrifugation at 16,000-g for 15 minutes and the supernatant was retained. Samples were normalized using a BCA assay of lysates to determine protein concentrations across the samples.
# Between 50 and 100 μg total protein lysate was loaded into ELISA wells in pMET Sandwich ELISA kit (Cell Signaling Catalog #7227C), ensuring equal protein load in each well. The ELISA was processed according to manufacturer's instructions. After color developed, absorbance was read on an optical plate reader at 450 nm.
# Potency measurements were determined using peak efficacy by scaling test compound dose treatments along a scale of 1-10 between 1 ng/mL and 10 ng/mL HGF doses according to the following formula: […]
# where y is the normalized data-point, x is the raw data point, A is the mean HGF at 1 ng/mL, and B is the mean HGF at 10 ng/mL.
# [2] = tested on: MDCK cells; assay: Cell scattering behavior assay; assay type: cell-based; set-up: key: − indicates that the compound failed to significantly promote cell scattering behavior; + indicates maximum potency at or above 100 nM; ++ indicates maximum potency at or above 10 nM; +++ indicates maximum potency at or above 1 nM; ++++ indicates maximum potency at or above 0.1 nM; settings: with 5 ng/mL HGF, 24 hours, normalized particle count compared to HGF treatment alone
# Experimental: MDCK cells were grown under normal conditions and observed to spontaneously form tight colonies as they proliferate. MDCK cells respond to HGF treatment by moving away from each other (scattering), which is quantified to assess the amount of HGF/MET activation in the cell population. In this experiment, MDCK cells were plated in a 96-well format, treated with HGF and exemplary compounds, fluorescently stained, imaged in large fields, and scattering behavior was quantified. Quantification was determined by analyzing the number of continuous groups of cells compared to the total stained area imaged (normalized particle counts).
# MDCK cells were plated at low density in black-walled imaging plates and allowed to attach overnight at 37° C. and 5% CO2 in DMEM+10% FBS. Cells were then starved to 2 hours in DMEM without FBS (“starve media”). Samples containing exemplary compounds were prepared in DMEM without FBS and included 5 ng/mL HGF protein (“treatment media”). A control curve was also prepared for each plate using HGF concentrations of 0, 5, 10, and 20 ng/mL. Starve media was replaced with treatment media and cells were incubated for 24 hours at 37° C. and 5% CO2.
# After incubation, cells were fixed by replacing treatment media with cold ethanol and incubating for 20 minutes at 4° C. Cells were then rehydrated by washing with PBS and then with stain solution (fluorescent wheat germ agglutinin; WGA488 at 20 μg/mL in PBS). Cells were incubated with stain solution 30 minutes at room temperature after which stain solution was replaced with fresh PBS.
# Fields of cells were imaged using an iCyte high content imager in the green wavelength. Images were converted to binary and analyzed for particle size and particle count. For the purpose of analysis, an individual cell touching no other cells or separated colonies of cells were identified as particles, and particle counts were normalized by the total signal area to account for differences in cell number. […] Compound potency was assessed by statistical increase in normalized particle count compared to HGF treatment alone.
# [3] = tested on: hepatocyte (HepG2) cell cultures; assay: Cytotoxicity assay (LDH release); assay type: cell-based; settings: HepG2 cells, 48 hours, 0.1 to 100 μM
# Experimental: This experiment was designed to obtain a preliminary assessment of cytotoxicity.
# HepG2 cells were plated in 96-well cell culture plates and allowed to attach overnight at 37° C., 5% CO2 in EMEM+10% FBS. Treatments were made in complete media (EMEM+10% FBS) and included a dilution series of test compounds from 0.1 to 100 μM. Known cytotoxin cerivastatin was used as a positive assay control and prepared at a final concentration of 0.5 μM.
# Growth media was replaced with treatment media (EMEM+10% FBS containing test compound dissolved in DMSO) and cells were incubated with test compounds for 48 hours. At the end of the incubation period, supernatant media from each well was transferred to a new plate and LDH assay working solution was added. LDH assay solution undergoes a colorimetric reaction in proportion to the amount of lactate dehydrogenase (an intracellular protein that was only found in the media in the presence of lysed cells) in the media. Color reaction was quantified by measurement of absorbance at a wavelength of 490 nm.
# The signal range of the assay was determined by no manipulation in a negative control treatment and full lysis of all cells in a lysis control sample. Compounds that increase the level of cytotoxicity more than 20% above negative control samples were considered cytotoxic in this assay.
# [4] = Parallel artificial membrane permeability assay (PAMPA); assay type: in vitro ADME; settings: PBS, room temperature for 5 hours, 200 uM in donor well
# Experimental: Bioavailable drugs must permeate the cellular membranes of the lining of the digestive tract. To estimate the penetrability of exemplary compounds, the in vitro parallel artificial membrane permeability assay (PAMPA) was utilized.
# Test compounds must have a standard curve in the final read plate to determine partitioned concentration of each drug. A 6-point standard curve was prepared for each compound from 0 to 200 μM in phosphate-buffered saline (PBS).
# Test compound solution (300 μL in PBS) was added to the donor (bottom) well of the PAMPA plate in 5 replicates and PBS vehicle (200 μL) was added to the acceptor (top) wells of appropriate wells to match the loading of the donor plate. The bottom and top of the PAMPA plates were then sandwiched together. The PAMPA plates were then incubated at room temperature for 5 hours. After incubation, 150 μL of donor solution was added to a UV compatible plate containing the corresponding standard curve. 150 μL of acceptor well solution was added adjacent to the corresponding standard curve and donor well samples for that compound. The plate was then read using a UV plate reader.
# Permeability and membrane retention were then calculated based on the following formulas:
# where: • A=filter area (0.3 cm^2); • VD=donor well volume (0.3 mL); • VA=acceptor well volume (0.2 mL); • t=incubation time (seconds); • CA(t)=compound concentration in acceptor well at time t; • CD(t)=compound concentration in donor well at time t; and
# where: • CD(t), VD, CA(t), and VA are as defined for equation 1, and • C0=initial concentration in donor well (200 uM).
# [5] = tested on: Rat primary cortical neuron cultures; assay: Protection from neurotoxicity in vitro (Cell Titer-Glo viability); assay type: cell-based; settings: for Protection of cell viability, statistical significance vs. insult control: Positive Control (1 uM)
# Experimental: HGF/MET signaling activation is expected to protect cells, including neurons, from cell death. […] Hydrogen peroxide (H2O2) treatment produces toxic oxidative stress. Bacteria-derived lipopolysaccharide (LPS) treatment induces inflammatory cell death. Treatment with excess glutamate (Glut) produces excitotoxicity in neuron cultures. Treatment with 1-methyl-4-phenylpyridinium (MPP^+) causes cell death by inhibition of mitochondrial function.
# Rat primary cortical neuron cultures were grown at 37° C., 5% CO2 in Complete Neurobasal Medium supplemented with B27/GDNF/BDNF containing 10% FBS until maturity and were then seeded in 384-well plate at 5,000 cells/well. Cultures were then treated for 15 minutes with 1 uM, 100 nM, 10 nM, 1 nM, or 0.1 nM of compound 1a. Cells were then subjected to individual conditional insults for 24 hours at the following concentrations: H2O2 at 1 uM, LPS at 1 uM, glutamate at 25 uM, MPP+ at 500 uM. All treatments contained recombinant human HGF (R&D Systems) at a concentration of 5 ng/ml.
# To quantify neuroprotection, cell viability was measured with the Cell Titer-Glo Luminescent Cell Viability Assay (Promega, Cat #G7571). Data was normalized to DMSO+HGF control set at 100% cell viability. Statistical analyses for each group (n=4) were performed using one-way ANOVA with Tukey's Multiple comparison test.
# Data is reported as statistical significance vs. insult control, with NS=not significant, +=p<0.05, ++=p<0.01, and +++=p<0.001.
# [6] = tested on: scopolamine-induced cognitive impairment; assay: Scopolamine-induced cognitive impairment, T-maze spontaneous alternation task; assay type: in vivo, CD-1 mice; settings: mice; scopolamine only, 0.89 mg/kg
# Source text: Mild cognitive impairment can be assessed in rodent models via delivery of various compounds that interfere with normal neurotransmitter signaling. Scopolamine is a compound that is well-known to antagonize muscarinic acetylcholine receptors, nicotinic receptors, as well as glutamatergic receptors such as NMDA receptors. Thus, delivery of scopolamine results in cognitive impairment, which can be assessed in a variety of cognitive tasks. Positive modulation of the HGF/MET system can promote NMDA receptor activation and results in pro-cognitive effects. Two test compounds, Compound 1a and Compound 5a, were evaluated for their ability to protect against scopolamine-induced cognitive impairment.
# In this study, mild cognitive impairment was modeled in otherwise healthy male CD-1 mice (4-5 weeks old at study start) by acute delivery of 0.89 mg/kg scopolamine (dissolved in saline). Test compounds were administered via oral gavage 0.5 hours prior to scopolamine exposure, and cognitive performance was assessed in the T-maze spontaneous alternation task 0.5 hours after scopolamine exposure (1 hour following test compound exposure). The experimental protocol consisted of one single session, which started with 1 “forced-choice” trial, followed by 14 “free-choice” trials. In the first “forced-choice” trial, the animal was confined 5 seconds in the start arm and was then released while either the left or right goal arm was blocked by a horizontal door. After the mouse entered the open goal arm and returned to the start position, the left or right goal door was opened, and the animal was allowed to choose freely between the left and right goal arm (“free choice trials”). The animal was considered to have entered into an arm when it placed its four paws in the arm. Normal animals will choose to explore the previously-unexplored arm, which is recorded as a spontaneous alternation. […] The session was terminated, and the animal was removed from the maze as soon as 14 free-choice trials had been performed or 10 min had elapsed, whichever event occurred first.
# This percentage was defined as entry into a different goal arm of the T maze over successive trials (e.g., left-right-left-right) and was calculated using the formula: (% alternations=Number of Alternations/14*100). Both compounds attenuated the degree of scopolamine-induced cognitive impairment, as indicated by increased percent of spontaneous alternations compared to scopolamine-only controls. Statistical analysis was accomplished via 1-way ANOVA with Dunnet's multiple comparisons post-test.
SMILES,Potency [1],Potency [2],Cytotoxicity [3],"Papp at 5 h, 200 uM [4]",also measured
CCC(C)CN1CC2N(C(=O)c3ccc(O)nc3)CCC(=O)N2[C@@H](C)C1=O (some centres unmarked) [Compound 4a],+ (+ indicates maximum potency at or above 100 nM),+ (+ indicates maximum potency at or above 100 nM),++++ (++++ indicates non-toxic at 100 μM),> 10 ×10⁻⁶ cm/s,
CCC(C)N1CC2N(Cc3ccc(O)cc3)CCC(=O)N2CC1=O (centres unmarked) [Compound 9],−,−,++++ (++++ indicates non-toxic at 100 μM),> 2 ×10⁻⁶ cm/s,
CCC(C)CN1CC2N(Cc3ccc(F)cc3)CCC(=O)N2C(C)C1=O (centres unmarked) [Compound 42],++++ (++++ indicates maximum potency at or above 0.1 nM),+++ (+++ indicates maximum potency at or above 1 nM),++++ (++++ indicates non-toxic at 100 μM),> 2 ×10⁻⁶ cm/s,
"CCC(C)CN1CC2N(Cc3ccc(OC(F)F)cc3)CCC(=O)N2C(CC(=O)O)C1=O (centres unmarked) [Compound 49, 2-(1-(4-(difluoromethoxy)benzyl)-8-(2-methylbutyl)-4,7-dioxooctahydro-2H-pyrazino[1,2-a]pyrimidin-6-yl)acetic acid]",++++ (++++ indicates maximum potency at or above 0.1 nM),++++ (++++ indicates maximum potency at or above 0.1 nM),++++ (++++ indicates non-toxic at 100 μM),> 2 ×10⁻⁶ cm/s,
CC1C(=O)N(CCC2CCC2)CC2N(Cc3ccc(C(F)(F)F)c(Cl)c3)CCC(=O)N12 (centres unmarked) [Compound 51],+++ (+++ indicates maximum potency at or above 1 nM),+++ (+++ indicates maximum potency at or above 1 nM),+++ (+++ indicates non-toxic at 10 μM),< 2 ×10⁻⁶ cm/s,
"C[C@]12N[C@H](Cc3ccccc31)c1ccccc12 [MK-801, reference compound]",,,,,"Protection of cell viability, statistical significance vs. insult control ([5]; insult Glutamate (25 uM) 24 hours): +++ (+++=p<0.001); Protection of cell viability, statistical significance vs. insult control ([5]; insult H2O2 (1 uM) 24 hours): +++ (+++=p<0.001); Protection of cell viability, statistical significance vs. insult control ([5]; insult LPS (1 uM) 24 hours): +++ (+++=p<0.001); Protection of cell viability, statistical significance vs. insult control ([5]; insult MPP+ (500 uM) 24 hours): +++ (+++=p<0.001)"
"C[n+]1ccc(-c2ccccc2)cc1 [MPP+, 1-methyl-4-phenylpyridinium, reference compound]",,,,,"Insult effect (% viability vs vehicle) ([5]; 500 uM, 24 hours, with HGF 5 ng/ml): 49.85%"
"CN1[C@@H]2C[C@@H](OC(=O)[C@H](CO)c3ccccc3)C[C@H]1[C@@H]1O[C@@H]12 [SCO, scopolamine, reference compound]",,,,,Spontaneous alternations % [6]: 37%
